# Results published in patent publication US12409172B2, “Dosage regimen” (UNION therapeutics A/S, priority 2023, dated 2025).
# Tests used:
# [1] = tested on: adults with moderate to severe atopic dermatitis; assay: Phase 2b dose-ranging study in atopic dermatitis (Example 8): efficacy (EASI, IGA-AD, PGIC); assay type: in vivo, human; settings: for patients achieving IGA0/1 responses at week 16: MI
# Description: A 16-week, phase 2b, double-blinded, placebo-controlled, dose-finding study assessing efficacy and safety of orismilast modified-release (MR) tablets in adults with moderate-to-severe atopic dermatitis was carried out (NCT05469464). Patients were randomized (1:1:1:1) to orismilast 20, 30, 40 mg or placebo, twice daily. Randomized and dosed patients were included in the Intent-to-Treat Population (used for efficacy and safety). Missing data was handled using Multiple Imputation (MI) for the analysis of primary and secondary efficacy endpoints.
# The exploratory objectives are to: • Evaluate pharmacokinetic (PK) and pharmacodynamic parameters relevant to AD • Evaluate the effect of orismilast on the pulmonary status and course of the disease in patients with asthma Primary Endpoint • Percentage change in Eczema Area and Severity Index (EASI) score from Baseline at Week 16. […]
# [2] = tested on: pruritus (itch) associated with atopic dermatitis; assay: Phase 2b study in atopic dermatitis (Examples 8, 9): ≥4-point improvement in peak pruritus NRS (PPNRS); assay type: in vivo, human
# Description: The severity of itch (pruritus) due to AD will be assessed using a horizontal 11-point NRS. Patients will be asked to assess their “worst itching due to AD over the past 24 hours” on an NRS anchored by the terms “no itching” (0) and “worst possible itching” (10). The item will be completed at each visit via an application on an electronic device in the clinic or the patient's own electronic device from baseline through Week 20.
# The binary secondary efficacy endpoint, 4-point improvement in the peak pruritis numerical rating scale (“responders”), was analysed using the Mantel-Haenszel (MH) test and Fisher's exact tests, comparing the proportions of PPNRS responders in each active treatment group with placebo (intent-to-treat (ITT) population).
# The ITT population included all randomized subjects who received at least 1 dose of orismilast. The treatment group assignment was designated according to initial randomization. The ITT population served as the basis for the analysis of efficacy.
# PPNRS assesses the severity of itch (pruritus) due to atopic dermatitis using a horizontal 11-point NRS. […]
# In FIG. 34, “Observed” or “Obs” refers to all subjects in the ITT Population with a recorded PPNRS score, i.e. if the PPNRS score is missing the value was not imputed. […]
# [3] = tested on: TNF-α secretion from human whole blood; settings: in vitro; cited from earlier work
smiles,measurement,setting,value
"O=C(Cc1c(Cl)c[n+]([O-])cc1Cl)c1ccc(OC(F)F)c2c1OC1(CCS(=O)(=O)CC1)O2 [orismilast, 2-(3,5-dichloro-1-oxidopyridin-1-ium-4-yl)-1-[7-(difluoromethoxy)-1′,1′-dioxospiro[1,3-benzodioxole-2,4′-thiane]-4-yl]ethanone]",patients achieving IGA0/1 responses at week 16,[1]; 20 mg BID (n=58),26.3%
same,patients achieving IGA0/1 responses at week 16,[1]; 30 mg BID (n=61),24.3%
same,mean percentage change in EASI at week 16,"[1]; 30 mg BID, p>0,05",−52.2%
same,patients achieving IGA0/1 responses at week 16,[1]; 40 mg BID (n=59),30.9%
same,"Patient Global Impression of Change of ""much improved"" or ""very much improved"" compared to placebo at week 16","[1]; active arms (20, 30, 40 mg BID)",improved significantly
same,≥4-point reduction in itch NRS / PPNRS at week 2 compared to placebo,"[2]; all active arms (20, 30, 40 mg BID), MI p<0.05",significant
same,≥4 point reduction in PPNRS at week 16 compared to placebo,"[2]; all active arms, subjects having severe itch (PPNRS>7) at baseline, Observed p<0.05 or p<0.1",statistically significant improvement
same,production of tumour necrosis factor α (TNFα) in human whole blood and PBMC,[3],inhibited
